From patent US20230272357A1, “METHODS OF GENOME EDITING INCLUDING CONTROLLED OPENING OF CHROMATIN” (Wisconsin Alumni Research Foundation, priority 2021, published 2023) come the findings set out here.

Entries after “also recorded” stand apart in the source; their conditions may differ.

Assay type in all cases: cell-based, human
Series [1] deals with iPSCs. Put plainly: Cell viability by Ghost Dye Red 780 flow cytometry. The protocol:
Cell viability: Flow cytometry was performed using Ghost Dye™ Red 780 viability dye (Tonbo Biosciences) to determine the dose range of the TSA that can be administrated to the cells without affecting cell viability. iPSCs (15,000 per well) were cultured overnight and incubated with TSA in 96-well plates for 24 h. The next day, cells were singularized using Accutase™ (STEMCELL technologies), washed with PBS, centrifuged at 300 g for 5 minutes, and Ghost Dye™ Red 780 viability dye was added at 1:1000 concentration for 20 minutes at room temperature. Cells were then washed with PBS, spun down at 300g for 5 minutes, and resuspended in 300 μL of PBS. Cells were run on an Attune NxT™ flow cytometer (Thermo Fisher Scientific) and subsequent analysis was performed using Flowjo software (BD).
Flow cytometry and fluorescence activated cell sorting: Flow cytometry was performed on singularized iPSCs using Attune™ Nxt flow cytometer (ThermoFisher Scientific) and analyzed using the FlowJo Software. Ghost Dye™ Red 780, ATTO 550, and GFP fluorescence were detected using 780/60, 585/16, and 530/30 filters in […] positions, respectively. Gates were established by running singularized untransfected iPSCs. The percentage of viable cells was calculated as the ratio of Ghost Dye™ Red 780-cells to the total number of single cells. Transfection efficiency was calculated as the percentage of ATTO 550+ cells to the total number of viable cells on day 2 post-transfection. Gene editing efficiency was calculated as the percentage of GFP-cells to the total number of viable cells on day 6 post-transfection. For the sorting experiments, iPSCs were singularized 6 days post-transfection using Accutase™, washed with PBS+20 μM ROCK inhibitor, centrifuged at 300 g for 5 minutes. Ghost Dye™ Red 780 viability dye (Tonbo Biosciences) was then added at 1:1000 concentration for 20 minutes at room temperature. Cells were washed again with PBS+20 μM ROCK inhibitor, spun down at 300 g for 5 minutes, and resuspended in 300 μL of FACS buffer (PBS+2% BSA+20 μM ROCK inhibitor). GFP-cells were then sorted into tubes containing mTeSR1+20 μM ROCK inhibitor, and seeded onto Matrigel®-coated 6 well polystyrene plates at 100 cells/well to obtain single-cell iPSC clones.
On the technique in general: Flow cytometry measures light scatter and fluorescence of single cells or particles in a stream.

Series [2] deals with HIST1H2BJ-GFP, AAVS1 (S8, S10), EMX1, VEGFA, TRAC (S2, S3) loci. Put plainly: Deep sequencing (NGS) of edited iPSCs at open and closed chromatin loci. The protocol:
Next Generation Sequencing of genomic DNA: DNA was isolated from iPSCs by adding 50 μL of DNA QuickExtract™/well (Epicentre) following treatment by Accutase™ and centrifugation. The DNA extract solution was incubated at 65° C. for 15 min, 68° C. for 15 min, and finally 98° C. for 10 min. Genomic PCR was performed according to the manufacturer's instructions using Q5 Hot Start polymerase (NEB). Sequencing indices were added with a second round of PCR using indexing primers (IDT), followed by a purification using AMPure XP magnetic bead purification kit (Beckman Coulter). Samples were pooled and sequenced on an Illumina® MiniSeq at a run length of 1×150 bp or 2×150 bp according to the manufacturer's instructions. Analysis was performed using CRISPR RGEN.
Multiple gRNA sequences targeting different sites of open (HIST1H2BJ and AAVS1) and closed chromatin (TRAC, VEGFA, EMX1) were selected to investigate if the observed TSA-induced increase in gene-editing efficiency at HIST1H2BJ-GFP locus is specific to the gRNA sequence or the chromatin state of the target locus. To gain a more detailed analysis of gene-edited events in iPSCs, deep sequencing was performed on edited cells obtained after TSA treatment. The genomic DNA was harvested on day 6 after Cas9 RNP delivery. PCR using primers flanking the gRNA target sites was then performed and prepared for next-generation sequencing (NGS) using the Illumina® MiniSeq™ system. […] Corroborating with this observation, we noted an increase in the local chromatin accessibility at the on-target sites upon TSA treatment (Data not shown). […] The highest frequency of indels was found three to four nucleotides upstream from the protospacer adjacent motif (PAM) sequence, consistent with reports of type II CRISPR systems (FIG. 2C,E). Furthermore, edited reads contained higher deletion events (approximately 50-80%) than insertion events (approximately 5-20%). Similar observations were reported in deep sequencing analysis of human cells edited by S. Pyogenes Cas9 (SpyCas9). The percentage of edited reads with Single Nucleotide Polymorphisms (SNPs) decreased upon chromatin decondensation via TSA treatment (FIG. 2F), while the relative distribution of SNPs around the cut site remained similar (data not shown). This is consistent with reports that indicate nucleosomes are enriched in SNPs.

The test system of series [3] is edited iPSC clones. Briefly: G-banded karyotyping of edited iPSC clones. The following applies: 6.25 ng/mL TSA. How it is done:
Karyotyping: Cells cultured for at least 5 passages were grown to 60-80% confluence and shipped for karyotype analysis to WiCell Research Institute, Madison, Wis. G-banded karyotyping was performed using standard cytogenetic protocols. Metaphase preparations were digitally captured with Applied Spectral Imaging software and hardware. For each cell line, 20 GTL-banded metaphases were counted, of which a minimum of 5 were analyzed and karyotyped. Results were reported in accordance with guidelines established by the International System for Cytogenetic Nomenclature 2016.

Where [4] appears, read: edited iPSCs obtained after TSA treatment, all loci.
Setting [5] is: seven loci, change upon TSA treatment.

For the molecule `CC(/C=C/C(=O)NO)=C\[C@@H](C)C(=O)c1ccc(N(C)C)cc1` [TSA, Trichostatin A], the Cell toxicity entry in series [1] (12.5 ng/mL TSA, FIG. 1E) is given as “higher cell toxicity”. Moreover, the “Cell viability (% GhostDye- cells/total cells)” value in series [1] (TSA 0, 3.13, 6.25, 12.5 ng/mL, FIG. 1D) was “decreases”. For the same molecule, the Cell viability entry in series [1] (iPSCs, TSA 0-200 ng/mL, data not shown) was “decreased with the increase in TSA concentration”. In series [1] (iPSCs, TSA range 0-200 ng/mL tested), the “TSA concentration with considerable decrease in cell viability” value was over 25 ng/mL. For the same molecule, in series [2] (setting [4]), the “Deletion events in edited reads” value is 50-80% and the “Insertion events in edited reads” value was 5-20%. Moreover, in series [2] (setting [5]), the “% edited reads with insertions” value is “no significant change; also recorded: did not undergo significant change” and the “% edited reads with only SNPs” value was “decreased”. In series [2] (seven open and closed loci, day 6, TSA vs 0 ng/mL), the “% editing efficiency by deep sequencing” value was “increased”. Further, the “Karyotype abnormality in one clone (#5)” value in series [3] (FIG. 4E, known recurrent duplication in pluripotent stem cell cultures) is “interstitial duplication in the long (q) arm of chromosome 20 in five of the twenty cells examined”. In series [3] (five clones, HIST1H2BJ-GFP locus), the “Karyotype of edited iPSC clones” value is recorded as “no genomic abnormalities in four of the five clones; also recorded: normal karyotype”.
